Experimental findings from patent US20210070748A1, “INHIBITORS OF BRUTONS TYROSINE KINASE” (Pharmacyclics LLC, priority 2015, published 2021) are described below.

Holding throughout (assay type): biochemical
Experiment [1] concerns the target LCK (Homo sapiens, UniProt P06239). Nature of the experiment: Inhibition of a panel of kinases, in vitro HotSpot kinase assay: LCK. The conditions noted are these: D-compounds panel data; 1 μM ATP; read-out: IC50 LCK.
Experiment [2] deals with T1, ITK (Homo sapiens, UniProt Q08881).
T1 sequence (Q08881 1-620): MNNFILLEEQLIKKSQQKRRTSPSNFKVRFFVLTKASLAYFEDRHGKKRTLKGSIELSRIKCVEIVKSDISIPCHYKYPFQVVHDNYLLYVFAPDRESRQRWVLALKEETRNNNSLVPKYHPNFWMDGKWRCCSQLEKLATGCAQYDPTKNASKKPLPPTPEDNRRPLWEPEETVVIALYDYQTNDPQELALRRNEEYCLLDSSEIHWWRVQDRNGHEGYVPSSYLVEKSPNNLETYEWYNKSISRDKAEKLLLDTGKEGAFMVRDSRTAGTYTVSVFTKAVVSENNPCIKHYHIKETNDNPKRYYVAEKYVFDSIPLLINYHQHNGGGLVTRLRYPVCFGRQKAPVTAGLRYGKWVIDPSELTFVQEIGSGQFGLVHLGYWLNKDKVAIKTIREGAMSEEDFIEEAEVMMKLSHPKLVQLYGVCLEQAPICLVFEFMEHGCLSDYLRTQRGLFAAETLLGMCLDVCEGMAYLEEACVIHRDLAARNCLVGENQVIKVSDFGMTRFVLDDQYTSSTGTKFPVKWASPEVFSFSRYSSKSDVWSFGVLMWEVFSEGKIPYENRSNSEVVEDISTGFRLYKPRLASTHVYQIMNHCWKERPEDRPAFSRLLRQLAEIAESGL
Put plainly: Inhibition of a panel of kinases, in vitro HotSpot kinase assay: ITK. The settings on record: D-compounds panel data; 1 μM ATP. The method, then:
(§1) The degree of inhibition of a panel of kinases is determined using the in vitro HotSpot kinase assay (purified enzymes, ^33P-ATP, an appropriate substrate and 1 μM ATP).

Experiment [3] deals with T2, TEC (Homo sapiens, UniProt P42680).
T2 sequence (P42680 1-631): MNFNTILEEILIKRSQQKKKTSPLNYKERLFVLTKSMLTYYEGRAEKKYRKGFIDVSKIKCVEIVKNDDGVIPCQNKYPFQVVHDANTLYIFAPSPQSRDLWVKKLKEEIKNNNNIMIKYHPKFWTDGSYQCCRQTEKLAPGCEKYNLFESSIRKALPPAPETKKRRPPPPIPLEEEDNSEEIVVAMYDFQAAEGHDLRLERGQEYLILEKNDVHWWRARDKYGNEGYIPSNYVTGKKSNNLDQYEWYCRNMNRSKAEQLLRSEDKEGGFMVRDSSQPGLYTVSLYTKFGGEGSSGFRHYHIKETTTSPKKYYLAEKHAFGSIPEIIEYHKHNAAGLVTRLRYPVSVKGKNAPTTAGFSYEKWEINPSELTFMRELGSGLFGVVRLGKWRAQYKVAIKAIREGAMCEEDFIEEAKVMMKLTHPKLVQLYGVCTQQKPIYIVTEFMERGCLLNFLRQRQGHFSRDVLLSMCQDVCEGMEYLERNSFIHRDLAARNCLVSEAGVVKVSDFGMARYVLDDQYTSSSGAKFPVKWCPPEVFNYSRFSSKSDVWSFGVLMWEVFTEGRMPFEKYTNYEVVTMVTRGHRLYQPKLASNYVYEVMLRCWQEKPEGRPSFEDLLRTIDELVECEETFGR
Put plainly: Inhibition of a panel of kinases, in vitro HotSpot kinase assay: TEC. The conditions noted are these: D-compounds panel data; 1 μM ATP. The procedure:
as §1

Sequence of LCK (P06239 whole entry): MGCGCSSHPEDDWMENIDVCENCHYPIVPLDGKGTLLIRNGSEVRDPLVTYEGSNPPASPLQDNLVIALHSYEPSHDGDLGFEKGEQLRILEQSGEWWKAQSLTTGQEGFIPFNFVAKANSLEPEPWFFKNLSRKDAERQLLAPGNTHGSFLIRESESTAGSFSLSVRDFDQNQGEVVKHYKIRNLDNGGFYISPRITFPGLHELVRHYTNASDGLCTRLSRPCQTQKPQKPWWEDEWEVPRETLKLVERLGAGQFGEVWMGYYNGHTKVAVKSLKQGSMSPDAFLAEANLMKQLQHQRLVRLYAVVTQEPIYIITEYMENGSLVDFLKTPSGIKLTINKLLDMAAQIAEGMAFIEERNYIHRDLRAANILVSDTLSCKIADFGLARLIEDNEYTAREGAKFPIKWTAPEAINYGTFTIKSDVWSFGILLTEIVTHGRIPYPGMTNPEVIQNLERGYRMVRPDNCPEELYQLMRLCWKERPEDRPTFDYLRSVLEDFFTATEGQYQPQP

Consider `C[C@@H]1[C@H](NC(=O)c2ccc(C3CC3)nc2)CCCN1c1cnc(C(N)=O)c(Nc2cnn(C)c2)n1` [Example D-18, 5-[(2R,3R)-3-(6-cyclopropylpyridine-3-amido)-2-methylpiperidin-1-yl]-3-[(1-methyl-1H-pyrazol-4-yl)amino]pyrazine-2-carboxamide], for which the IC50 is 100 to 1000 nM in experiment [1], 100 to 1000 nM in experiment [2] and 10 to 100 nM in experiment [3].
For the molecule `C[C@@H]1[C@H](NC(=O)c2ccc(N(C)CCO)cc2)CCCN1c1cnc(C(N)=O)c(Nc2cnn(C)c2)n1` [Example D-217, 5-[(2R,3R)-3-{4-[(2-hydroxyethyl)(methyl)amino]benzamido}-2-methylpiperidin-1-yl]-3-[(1-methyl-1H-pyrazol-4-yl)amino]pyrazine-2-carboxamide], the figures for the IC50 in experiment [1], in experiment [2] and in experiment [3] were 100 to 1000 nM, 100 to 1000 nM and not above 10 nM, respectively.
Regarding `C[C@@H]1[C@H](NC(=O)c2ccc3scnc3c2)CCCN1c1cnc(C(N)=O)c(Nc2cnn(C)c2)n1` [Example D-237, N-[(2R,3R)-1-{5-carbamoyl-6-[(1-methyl-1H-pyrazol-4-yl)amino]pyrazin-2-yl}-2-methylpiperidin-3-yl]-1,3-benzothiazole-5-carboxamide], the results for the IC50 in experiment [1], in experiment [2] and in experiment [3] were 10 to 100 nM, 100 to 1000 nM and not above 10 nM, respectively.
In the same order, the values of `Cn1cc(Nc2nc(N3CCC[C@@H](n4ccc5cc(C6CC6)ccc5c4=O)C3)cnc2C(N)=O)cn1` [Example D-184, 5-[(3R)-3-(6-cyclopropyl-1-oxo-1,2-dihydroisoquinolin-2-yl)piperidin-1-yl]-3-[(1-methyl-1H-pyrazol-4-yl)amino]pyrazine-2-carboxamide] are 1000 to 10000 nM, more than 10000 nM and 10 to 100 nM.
Consider `CC(C)c1ccc(C(=O)N[C@@H]2CCCN(c3cnc(C(N)=O)c(Nc4cnn(C)c4)n3)C2)cc1` [Example D-222, 3-[(1-Methyl-1H-pyrazol-4-yl)amino]-5-[(3R)-3-[4-(propan-2-yl)benzamido]piperidin-1-yl]pyrazine-2-carboxamide], for which the results for the IC50 in experiment [1], in experiment [2] and in experiment [3] were 1000 to 10000 nM, more than 10000 nM and 10 to 100 nM, respectively.
For `C/C=C/c1ccc(C(=O)N[C@@H]2CCCN(c3cnc(C(N)=O)c(Nc4cc(C)ns4)c3)[C@@H]2C)c(F)c1` [Example D-170, 5-[(2R,3R)-3-{2-fluoro-4-[(1E)-prop-1-en-1-yl]benzamido}-2-methylpiperidin-1-yl]-3-[(3-methyl-1,2-thiazol-5-yl)amino]pyridine-2-carboxamide], in that order: 10 to 100 nM, more than 10000 nM and 100 to 1000 nM.
Consider `C[C@@H]1[C@H](NC(=O)c2ccc(C(C)(C)C)cn2)CCCN1c1cnc(C(N)=O)c(Nc2cnn(C)c2)n1` [Example D-208, 5-[(2R,3R)-3-(5-tert-butylpyridine-2-amido)-2-methylpiperidin-1-yl]-3-[(1-methyl-1H-pyrazol-4-yl)amino]pyrazine-2-carboxamide], for which the IC50 in experiment [1] lay within 100 to 1000 nM; in experiment [2] it was 100 to 1000 nM; in experiment [3], 10 to 100 nM.
Take `CN1CCN(C(=O)c2ccc(Nc3nc(N4CCC[C@@H](n5ccc6cc(C7CC7)ccc6c5=O)C4)cnc3C(N)=O)cc2)CC1` [Example D-169, 5-[(3R)-3-(6-cyclopropyl-1-oxo-1,2-dihydroisoquinolin-2-yl)piperidin-1-yl]-3-{[4-(4-methylpiperazine-1-carbonyl)phenyl]amino}pyrazine-2-carboxamide]: the figures for the IC50 in experiment [1], in experiment [2] and in experiment [3] were 100 to 1000 nM, 100 to 1000 nM and 10 to 100 nM, respectively.
Regarding `C[C@@H]1[C@H](NC(=O)c2ccc(C3CC3)cc2)CCCN1c1cnc(C(N)=O)c(Nc2cnn(CC(C)(C)O)c2)n1` [Example D-215, 5-[(2R,3R)-3-(4-cyclopropylbenzamido)-2-methylpiperidin-1-yl]-3-{[1-(2-hydroxy-2-methylpropyl)-1H-pyrazol-4-yl]amino}pyrazine-2-carboxamide], the IC50 in experiment [1] lay within 1000 to 10000 nM; in experiment [2], 1000 to 10000 nM; in experiment [3], 100 to 1000 nM.
